Assay results published in patent US11040026B2, “Muscarinic M1 receptor positive allosteric modulators” (SUVEN LIFE SCIENCES LIMITED, priority 2016, dated 2021).

System: not listed separately
Experiment: Rodent pharmacokinetic study
Format: in vivo, Male Wistar rats
Conditions: male, Wistar, plasma; rat, intravenous (bolus), 1 mg/kg
Experimental: Rodent Pharmacokinetic Study
Male Wistar rats (260±50 grams) were used as experimental animals. Animals were housed individually in polypropylene cage. Two days prior to study, male Wistar rats were anesthetized with isoflurane for surgical placement of jugular vein catheter. Rats were randomly divided for oral (3 mg/kg) and intravenous (1 mg/kg) dosing (n=3/group) and fasted overnight before oral dosing (p.o.). However, rats allocated to intravenous dosing food and water was provided ad libitum.
At pre-determined point, blood was collected through jugular vein and replenished with an equivalent volume of normal saline. Collected blood was transferred into a labeled eppendorf tube containing 10 μL of heparin as an anticoagulant. Typically blood samples were collected at following time points: 0.08, 0.25, 0.5, 1, 2, 4, 6, 8, and 24 hours post dose. Blood was centrifuged at 4000 rpm for 10 minutes. Plasma was separated and stored frozen at −80° C. until analysis. The concentrations of the test compounds were quantified in plasma by qualified LC-MS/MS method using suitable extraction technique. The test compounds were quantified in the calibration range around 1-1000 ng/mL in plasma. Study samples were analyzed using calibration samples in the batch and quality control samples spread across the batch.
Pharmacokinetic parameters Cmax, AUCt, T1/2, Clearance and Bioavailability (F) were calculated by non-compartmental model using standard non-compartmental model by using Phoenix WinNonlin 6.0.4 version Software package.

Row | AUC(0-t) [ng·h/mL] | clearance [mL/min/kg] | half-life [h] | SMILES
1 | 742 ± 40 | 22 ± 1 | 1.1 ± 0.3 | CN1CCc2c(Cc3ccnc(F)c3)cc(C(=O)N[C@H]3CCCC[C@@H]3O)nc21 [Example 73, N-[(1S,2S)-2-Hydroxycyclohexyl]-4-(2-fluoropyridin-4-ylmethyl)-1-methyl-2,3-dihydro-1H-pyrrolo[2,3-b]pyridine-6-carboxamide]

Same assay, conditions: male, Wistar, plasma; rat, oral (gavage), 3 mg/kg

Row | AUC(0-t) [ng·h/mL] | Cmax [ng/mL] | half-life [h] | SMILES
2 | 1740 ± 296 | 1100 ± 85 | 1.2 ± 0.1 | CN1CCc2c(Cc3ccnc(F)c3)cc(C(=O)N[C@H]3CCCC[C@@H]3O)nc21 [Example 73, N-[(1S,2S)-2-Hydroxycyclohexyl]-4-(2-fluoropyridin-4-ylmethyl)-1-methyl-2,3-dihydro-1H-pyrrolo[2,3-b]pyridine-6-carboxamide]

Same assay, conditions: rat, oral (gavage) 3 mg/kg vs intravenous 1 mg/kg

Row | F [%] | SMILES
3 | 78 ± 13 | CN1CCc2c(Cc3ccnc(F)c3)cc(C(=O)N[C@H]3CCCC[C@@H]3O)nc21 [Example 73, N-[(1S,2S)-2-Hydroxycyclohexyl]-4-(2-fluoropyridin-4-ylmethyl)-1-methyl-2,3-dihydro-1H-pyrrolo[2,3-b]pyridine-6-carboxamide]

Biological target: T1, muscarinic M1 receptor (Homo sapiens, UniProt P11229)
T1 sequence (P11229 1-460): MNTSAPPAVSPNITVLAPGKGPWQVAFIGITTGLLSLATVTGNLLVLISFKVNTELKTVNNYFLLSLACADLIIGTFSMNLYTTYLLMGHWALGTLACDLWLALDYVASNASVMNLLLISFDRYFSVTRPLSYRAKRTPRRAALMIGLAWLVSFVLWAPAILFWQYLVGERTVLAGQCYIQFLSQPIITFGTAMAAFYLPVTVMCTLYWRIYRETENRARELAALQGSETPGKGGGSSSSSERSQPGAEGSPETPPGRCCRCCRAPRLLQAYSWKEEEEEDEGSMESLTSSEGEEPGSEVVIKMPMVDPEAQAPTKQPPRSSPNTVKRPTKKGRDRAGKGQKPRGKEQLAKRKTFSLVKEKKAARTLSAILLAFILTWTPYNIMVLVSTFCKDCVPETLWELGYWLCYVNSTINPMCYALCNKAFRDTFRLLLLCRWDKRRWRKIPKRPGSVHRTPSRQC
Experiment: Allosteric potency EC50 for muscarinic M1 receptor (CHO pCRE-Luc reporter assay)
Format: cell-based
Conditions: in presence of EC20 of acetylcholine; CHO cells, luciferase reporter, 4 hours
Experimental: Determination of Allosteric Potency EC50 Values for Muscarinic M1 Receptor:
A stable CHO cell line expressing recombinant human Muscarinic M1 receptor and pCRE-Luc reporter system was used for cell-based assay. The assay offers a non-radioactive based approach to determine binding of a compound to GPCRs. In this specific assay, the level of intracellular cyclic AMP which is modulated by activation or inhibition of the receptor is measured. The recombinant cells harbor luciferase reporter gene under the control of cyclic AMP response element.
The above cells were grown in 96 well clear bottom white plates in Hams F12 medium containing 10% fetal bovine serum (FBS). Prior to the addition of compounds or standard agonist, cells were serum starved overnight. Increasing concentrations of test compounds were added along with EC20 of acetylcholine in OptiMEM medium to the cells. The incubation was continued at 37° C. in CO2 incubator for 4 hours. Medium was removed and cells were washed with phosphate buffered saline. The cells were lysed and luciferase activity was measured in a Luminometer. Luminescence units were plotted against the compound concentrations using Graphpad software. EC50 values of the compounds were defined as the concentration required in stimulating the luciferase activity by 50% in presence of EC20 of acetylcholine and the results are provided in table 1.

Row | EC50 [nM] | SMILES
4 | 786 | CN1CCc2c(Cc3ccnc(F)c3)cc(C(=O)N[C@H]3CCCC[C@@H]3O)nc21 [Example 73, N-[(1S,2S)-2-Hydroxycyclohexyl]-4-(2-fluoropyridin-4-ylmethyl)-1-methyl-2,3-dihydro-1H-pyrrolo[2,3-b]pyridine-6-carboxamide]
5 | 1080 | COc1ccc(Cc2cc(C(=O)N[C@H]3CCCC[C@@H]3O)nc3c2ccn3C)cn1 [Example 2, N-[(1S,2S)-2-Hydroxycyclohexyl]-4-(2-methoxypyridin-5-ylmethyl)-1-methyl-1H-pyrrolo[2,3-b]pyridine-6-carboxamide]
6 | 968 | Cn1ccc2c(Cc3ccnc(F)c3)cc(C(=O)N[C@@H]3CCOC[C@H]3O)nc21 (single isomer, unassigned; isomer-i) [Example 39, trans-N-(3-Hydroxytetrahydropyran-4-yl)-4-(2-fluoropyridin-4-ylmethyl)-1-methyl-1H-pyrrolo[2,3-b]pyridine-6-carboxamide (Isomer-I)]
7 | 755 | Cn1ccc2c(Cc3ccnc(F)c3)cc(C(=O)N[C@@H]3CCOC[C@H]3O)nc21 (single isomer, unassigned; isomer-ii) [Example 40, trans-N-(3-Hydroxytetrahydropyran-4-yl)-4-(2-fluoropyridin-4-ylmethyl)-1-methyl-1H-pyrrolo[2,3-b]pyridine-6-carboxamide (Isomer-II)]
8 | 617 | Cn1ccc2c(Cc3ccc(-c4ccc(F)nc4)nc3)cc(C(=O)N[C@H]3CCCC[C@@H]3O)nc21 [Example 13, N-[(1S,2S)-2-Hydroxycyclohexyl]-4-(2′-fluoro-[2,5]bipyridinyl-5-ylmethyl)-1-methyl-1H-pyrrolo[2,3-b]pyridine-6-carboxamide]
9 | 891 | Cn1ccc2c(Cc3ccncc3)cc(C(=O)N[C@H]3CCCC[C@@H]3O)nc21 [Example 14, N-[(1S,2S)-2-Hydroxycyclohexyl]-4-(pyridin-4-ylmethyl)-1-methyl-1H-pyrrolo[2,3-b]pyridine-6-carboxamide]
10 | 494 | CN1CCc2c(Cc3ccc(Cl)nc3)cc(C(=O)N[C@H]3CCCC[C@@H]3O)nc21 [Example 72, N-[(1S,2S)-2-Hydroxycyclohexyl]-4-(2-chloropyridin-5-ylmethyl)-1-methyl-2,3-dihydro-1H-pyrrolo[2,3-b]pyridine-6-carboxamide]
11 | 85 | CN1CCOc2c(Cc3ccc(-c4cnn(C)c4)cc3)cc(C(=O)N[C@H]3CCCC[C@@H]3O)nc21 [Example 122, N-[(1S,2S)-2-Hydroxycyclohexyl]-8-[4-(1-methyl-1H-pyrazol-4-yl)benzyl]-4-methyl-2H-pyrido[3,2-b][1,4]oxazine-6-carboxamide]
12 | 1630 | Cc1cc(Cc2cc(C(=O)N[C@H]3CCCC[C@@H]3O)nc3c2ccn3C)ccn1 [Example 17, N-[(1S,2S)-2-Hydroxycyclohexyl]-4-(2-methylpyridin-4-ylmethyl)-1-methyl-1H-pyrrolo[2,3-b]pyridine-6-carboxamide]
13 | 1820 | Cn1ccc2c(Cc3ccc(F)c(F)c3)cc(C(=O)N[C@@H]3CCOC[C@H]3O)nc21 (single isomer, unassigned; isomer-i) [Example 51, trans-N-(3-Hydroxytetrahydropyran-4-yl)-4-(3,4-difluorobenzyl)-1-methyl-1H-pyrrolo[2,3-b]pyridine-6-carboxamide (Isomer-I)]
14 | 1050 | Cc1ncccc1-c1ccc(Cc2cc(C(=O)N[C@H]3CCCC[C@@H]3O)nc3c2ccn3C)cc1 [Example 21, N-[(1S,2S)-2-Hydroxycyclohexyl]-4-[4-(2-methylpyridin-3-yl)benzyl]-1-methyl-1H-pyrrolo[2,3-b]pyridine-6-carboxamide]
15 | 17 | Cn1cc(-c2ccc(Cc3cc(C(=O)N[C@H]4CCCC[C@@H]4O)nc4c3ccn4C)c(F)c2)cn1 [Example 8, N-[(1S,2S)-2-Hydroxycyclohexyl]-4-[2-fluoro-4-(1-methyl-1H-pyrazol-4-yl)benzyl]-1-methyl-1H-pyrrolo[2,3-b]pyridine-6-carboxamide]
16 | 32 | Cn1ccc2c(Cc3ccc(-c4cscn4)cc3)cc(C(=O)N[C@@H]3CCOC[C@H]3O)nc21 (single isomer, unassigned; isomer-ii) [Example 55, trans-N-(3-Hydroxytetrahydropyran-4-yl)-4-[4-(thiazol-4-yl)benzyl]-1-methyl-1H-pyrrolo[2,3-b]pyridine-6-carboxamide (Isomer-II)]
17 | 315 | CSc1ccc(Cc2cc(C(=O)N[C@H]3CCCC[C@@H]3O)nc3c2ccn3C)cn1 [Example 20, N-[(1S,2S)-2-Hydroxycyclohexyl]-4-(2-methylsulfanylpyridin-5-ylmethyl)-1-methyl-1H-pyrrolo[2,3-b]pyridine-6-carboxamide]
18 | 1110 | COc1ccc(Cc2cc(C(=O)N[C@H]3CCCC[C@@H]3O)nc3c2ccn3C)cc1 [Example 19, N-[(1S,2S)-2-Hydroxycyclohexyl]-4-(4-methoxybenzyl)-1-methyl-1H-pyrrolo[2,3-b]pyridine-6-carboxamide]
19 | 2920 | Cn1ccc2c(Cc3ccc(Cl)nc3)cc(C(=O)N[C@H]3CCOC[C@H]3O)nc21 (single isomer, unassigned; isomer-ii) [Example 50, cis-N-(3-Hydroxytetrahydropyran-4-yl)-4-(2-chloropyridin-5-ylmethyl)-1-methyl-1H-pyrrolo[2,3-b]pyridine-6-carboxamide (Isomer-II)]
20 | 8 | Cn1cc(-c2ccc(Cc3cc(C(=O)N[C@H]4CCCC[C@@H]4O)nc4c3ccn4C)cc2)cn1 [Example 7, N-[(1S,2S)-2-Hydroxycyclohexyl]-4-[4-(1-methyl-1H-pyrazol-4-yl)benzyl]-1-methyl-1H-pyrrolo[2,3-b]pyridine-6-carboxamide]
21 | 15 | Cn1ccc2c(Cc3ccc(-n4cccn4)cc3)cc(C(=O)N[C@H]3CCCC[C@@H]3O)nc21 [Example 6, N-[(1S,2S)-2-Hydroxycyclohexyl]-4-(4-pyrazol-1-ylbenzyl)-1-methyl-1H-pyrrolo[2,3-b]pyridine-6-carboxamide]
22 | 362 | Cn1ccc2c(Cc3cccc(F)c3)cc(C(=O)N[C@H]3CCCC[C@@H]3O)nc21 [Example 25, N-[(1S,2S)-2-Hydroxycyclohexyl]-4-(3-fluorobenzyl)-1-methyl-1H-pyrrolo[2,3-b]pyridine-6-carboxamide]
23 | 3150 | Cn1ccc2c(Cc3ccnc(F)c3)cc(C(=O)NC3CCOCC3O)nc21 (single isomer, unassigned) [Example 45, Racemic cis-N-(3-Hydroxytetrahydropyran-4-yl)-4-(2-fluoropyridin-4-ylmethyl)-1-methyl-1H-pyrrolo[2,3-b]pyridine-6-carboxamide]
